In patent US8188306B2, “Heat shock protein 90 inhibitors” (University of Kansas, priority 2004, dated 2012):

Target: T1, Recombinant yeast Hsp90 (Saccharomyces cerevisiae, UniProt P02829)
T1 construct: made in house
Assay: Inhibition of Hsp90 ATPase activity, production of inorganic phosphate
Assay type: biochemical
Details: incubated with ATP
Method: The present invention also evaluated the biological activity of some of the RAD amides prepared in accordance with the present invention. Recombinant yeast Hsp90 was overexpressed and purified according to the procedure of Buchner. Richter, et al., Coordinated ATP Hydrolysis by the Hsp90 Dimer. […] The yeast was a kind gift from Boris Kornikaeve at the University of Kansas Biomedical Research Service Laboratory.
The pure protein was incubated with ATP and one of three RAD amides (the quinone, the 1,4-hydroxy, or the 1,4-methoxy), and the production of inorganic phosphate was determined.

T1 sequence (P02829 whole entry): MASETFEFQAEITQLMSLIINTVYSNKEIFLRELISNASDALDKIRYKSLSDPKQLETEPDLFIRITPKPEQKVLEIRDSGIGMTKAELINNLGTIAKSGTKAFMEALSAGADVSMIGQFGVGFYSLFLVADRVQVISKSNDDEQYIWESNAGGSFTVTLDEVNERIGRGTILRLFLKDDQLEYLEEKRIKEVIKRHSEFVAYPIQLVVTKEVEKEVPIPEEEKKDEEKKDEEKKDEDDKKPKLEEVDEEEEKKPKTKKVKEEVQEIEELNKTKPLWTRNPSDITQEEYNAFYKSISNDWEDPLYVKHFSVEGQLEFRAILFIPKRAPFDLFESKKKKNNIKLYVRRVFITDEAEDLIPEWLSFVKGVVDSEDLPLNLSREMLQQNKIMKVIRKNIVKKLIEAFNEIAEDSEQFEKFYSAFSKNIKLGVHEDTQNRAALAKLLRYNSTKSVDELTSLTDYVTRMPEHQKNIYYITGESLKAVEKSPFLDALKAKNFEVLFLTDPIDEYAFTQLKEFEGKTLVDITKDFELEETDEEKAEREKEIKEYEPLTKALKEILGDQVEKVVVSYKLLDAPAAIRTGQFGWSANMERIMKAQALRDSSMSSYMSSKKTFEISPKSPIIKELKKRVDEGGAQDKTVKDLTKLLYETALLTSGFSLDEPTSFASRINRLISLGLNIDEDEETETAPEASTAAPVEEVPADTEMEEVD

## COC(=O)c1c(O)cc(O)c(Cl)c1CCC(=O)NC1=CC(=O)C(OC)=CC1=O [Quinone]
IC50 (μm), table
  IC50: 5.9 µM
IC50 / inhibitory activity
  IC50: 1.8 µM
